Laboratory results taken from patent US20040110763A1, “Pyrazolopyridine compound and pharmaceutical use thereof” (priority 2000, published 2004).

melting point [°C] | Compound
149 to 150 | CCOCCNC(=O)c1ccn2nc(-c3ccccc3)c(-c3ccc(=O)n(C(C)C)n3)c2c1 [Example 78, N-(2-Ethoxyethyl)-3-(3-oxo-2-isopropyl-2,3-dihydropyridazin-6-yl)-2-phenylpyrazolo[1,5-a]pyridine-5-carboxamide]
179 to 180 | CCn1nc(-c2c(-c3ccc(F)cc3)nn3ccc(OC)cc23)ccc1=O [Example 131, 5-Methoxy-3-(3-oxo-2-ethyl-2,3-dihydropyridazin-6-yl)-2-(4-fluorophenyl)pyrazolo[1,5-a]pyridine]
189 to 190 | CC(C)n1nc(-c2c(-c3ccccc3)nn3ccc(C(=O)N4CCCC4)cc23)ccc1=O [Example 73, 5-(1-pyrrolidinylcarbonyl)-3-(3-oxo-2-isopropyl-2,3-dihydropyridazin-6-yl)-2-phenylpyrazolo[1,5-a]pyridine]
221 to 222 | COc1ccn2nc(-c3ccc(F)cc3)c(-c3ccc(=O)n(C)n3)c2c1 [Example 130, 5-Methoxy-3-(3-oxo-2-methyl-2,3-dihydropyridazin-6-yl)-2-(4-fluorophenyl)pyrazolo[1,5-a]pyridine]
220.5 to 221.5 | COc1ccn2nc(-c3ccccc3F)c(-c3ccc(=O)n(C)n3)c2c1 [Example 126, 5-Methoxy-3-(3-oxo-2-methyl-2,3-dihydropyridazin-6-yl)-2-(2-fluorophenyl)pyrazolo[1,5-a]pyridine]
218 to 219 | CC(C)n1nc(-c2c(-c3ccccc3)nn3c(N)cccc23)ccc1=O [Example 134, 7-Amino-3-(3-oxo-2-isopropyl-2,3-dihydropyridazin-6-yl)-2-phenylpyrazolo[1,5-a]pyridine]
230 to 232 | CC(C)NC(=O)c1ccn2nc(-c3ccccc3)c(-c3ccc(=O)n(C(C)C)n3)c2c1 [Example 95, N-Isopropyl-3-(3-oxo-2-isopropyl-2,3-dihydropyridazin-6-yl)-2-phenylpyrazolo[1,5-a]pyridine-5-carboxamide]
185 to 186 | COc1cccn2nc(-c3ccccc3)c(-c3ccc(=O)n(C(C)C)n3)c12 [Example 194, 4-Methoxy-3-(3-oxo-2-isopropyl-2,3-dihydropyridazin-6-yl)-2-phenylpyrazolo[1,5-a]pyridine]
213 to 215 | CC(C)n1nc(-c2c(-c3ccccc3)nn3ccc(N4CCC(O)CC4)cc23)ccc1=O [Example 101, 5-(4-Hydroxy-1-piperidinyl)-3-(3-oxo-2-isopropyl-2,3-dihydropyridazin-6-yl)-2-phenylpyrazolo[1,5-a]pyridine]
171 to 172 | CC(C)n1nc(-c2c(-c3ccccc3)nn3ccc(C#CC(C)(C)O)cc23)ccc1=O [Example 136, 5-(3-hydroxy-3-methyl-1-butynyl)-3-(3-oxo-2-isopropyl-2,3-dihydropyridazin-6-yl)-2-phenylpyrazolo[1,5-a]pyridine]
92 to 96 | CC(=O)Nc1cccc2c(-c3ccc(=O)n(C(C)C)n3)c(-c3ccccc3)nn12 [Example 187, 7-Acetylamino-3-(3-oxo-2-isopropyl-2,3-dihydropyridazin-6-yl)-2-phenylpyrazolo[1,5-a]pyridine]
136 to 138 | CC(C)n1nc(-c2c(-c3ccccc3)nn3ccc(N4CCN(Cc5ccccc5)CC4)cc23)ccc1=O [Example 105, 5-(4-Benzyl-1-piperazinyl)-3-(3-oxo-2-isopropyl-2,3-dihydropyridazin-6-yl)-2-phenylpyrazolo[1,5-a]pyridine]
138 to 139 | COCC(C)n1nc(-c2c(-c3ccccc3)nn3ccc(OC)cc23)ccc1=O (stereo not shown) [Example 121, 5-Methoxy-3-[3-oxo-2-(1-methoxy-2-propyl)-2,3-dihydropyridazin-6-yl]-2-phenylpyrazolo[1,5-a]pyridine]
199 to 200 | CC(C)C(=O)Nc1ccn2nc(-c3ccccc3)c(-c3ccc(=O)n(C(C)C)n3)c2c1 [Example 149, 5-(2-Methylpropanoylamino)-3-(3-oxo-2-isopropyl-2,3-dihydropyridazin-6-yl)-2-phenylpyrazolo[1,5-a]pyridine]
176 to 177 | CCCOc1cccn2nc(-c3ccccc3)c(-c3ccc(=O)n(C(C)C)n3)c12 [Example 197, 4-n-Propoxy-3-(3-oxo-2-isopropyl-2,3-dihydropyridazin-6-yl)-2-phenylpyrazolo [1,5-a]pyridine]
174 | CCCn1nc(-c2c(-c3ccccc3)nn3ccc(OC)cc23)ccc1=O [Example 117, 5-Methoxy-3-(3-oxo-2-propyl-2,3-dihydropyridazin-6-yl)-2-phenylpyrazolo[1,5-a]pyridine]
185 to 186 | CC(C)n1nc(-c2c(-c3ccccc3)nn3ccc(C(=O)N4CCCCC4)cc23)ccc1=O [Example 89, 5-(1-Piperidinylcarbonyl)-3-(3-oxo-2-isopropyl-2,3-dihydropyridazin-6-yl)-2-phenylpyrazolo[1,5-a]pyridine]
207 to 208 | COc1ccn2nc(-c3ccccc3)c(-c3ccc(=O)n(C4CCOC4)n3)c2c1 (stereo not shown) [Example 118, 5-Methoxy-3-[3-oxo-2-(tetrahydrofuran-3-yl)-2,3-dihydropyridazin-6-yl]-2-phenylpyrazolo[1,5-a]pyridine]
137 to 138 | CC(C)n1nc(-c2c(-c3ccccc3)nn3cccc(OCCN(C)C)c23)ccc1=O [Example 198, 4-(2-(Dimethylamino)ethoxy)-3-(3-oxo-2-isopropyl-2,3-dihydropyridazin-6-yl)-2-phenylpyrazolo[1,5-a]pyridine]

Further lines, the compound ahead of its results:

Compound | melting point [°C]
CC(C)Oc1ccn2nc(-c3ccccc3)c(-c3ccc(=O)n(C(C)C)n3)c2c1 [Example 10, 5-Isopropoxy-3-(3-oxo-2-isopropyl-2,3-dihydropyridazin-6-yl)-2-phenylpyrazolo[1,5-a]pyridine] | 162 to 163
CC(C)n1nc(-c2c(-c3ccccc3)nn3ccc(OC4CCOCC4)cc23)ccc1=O [Example 46, 5-(Tetrahydropyran-4-yl)oxy-3-(3-oxo-2-isopropyl-2,3-dihydropyridazin-6-yl)-2-phenylpyrazolo[1,5-a]pyridine] | 210.5 to 211
CC(C)CNC(=O)COc1ccn2nc(-c3ccccc3)c(-c3ccc(=O)n(C(C)C)n3)c2c1 [Example 45, N-Isobutyl-2-{[3-(3-oxo-2-isopropyl-2,3-dihydropyridazin-6-yl)-2-phenylpyrazolo [1,5-a]pyridin-5-yl]oxy}acetamide] | 167.5 to 168.5
CC(C)n1nc(-c2c(-c3ccccc3)nn3ccc(OCC(=O)N(C)C)cc23)ccc1=O [Example 40, 2-{[3-(3-oxo-2-isopropyl-2,3-dihydropyridazin-6-yl)-2-phenylpyrazolo[1,5-a]pyridin-5-yl]oxy}-N,N-dimethylacetamide] | 189 to 190
CC(C)n1nc(-c2c(-c3ccccc3)nn3ccc(OCCCN(C)C)cc23)ccc1=O [Example 15, 5-(3-Dimethylaminopropoxy)-3-(3-oxo-2-isopropyl-2,3-dihydropyridazin-6-yl)-2-phenylpyrazolo[1,5-a]pyridine] | 125 to 126
CCN(CC)CCOc1ccn2nc(-c3ccccc3)c(-c3ccc(=O)n(C(C)C)n3)c2c1 [Example 25, 5-[2-(Diethylamino)ethoxy]-3-(3-oxo-2-isopropyl-2,3-dihydropyridazin-6-yl)-2-phenylpyrazolo[1,5-a]pyridine] | 92.5 to 94.5
CC(C)n1nc(-c2c(-c3ccccc3)nn3ccc(OCCN4[C@H](C)COC[C@@H]4C)cc23)ccc1=O [Example 18, 5-[2-{(3R,5S)-3,5-Dimethyl-4-morpholinyl}ethoxy]-3-(3-oxo-2-isopropyl-2,3-dihydropyridazin-6-yl)-2-phenylpyrazolo[1,5-a]pyridine] | 145 to 146
CC(C)n1nc(-c2c(-c3ccccc3)nn3ccc(C#N)cc23)ccc1=O [Example 71, 3-(3-oxo-2-isopropyl-2,3-dihydropyridazin-6-yl)-2-phenylpyrazolo[1,5-a]pyridine-5-carbonitrile] | 202 to 203
CC(C)n1nc(-c2c(-c3ccccc3)nn3ccc(OCCN4CCCCC4)cc23)ccc1=O [Example 16, 5-[2-(1-Piperidinyl)ethoxy]-3-(3-oxo-2-isopropyl-2,3-dihydropyridazin-6-yl)-2-phenylpyrazolo[1,5-a]pyridine] | 144 to 144.5
CC(C)n1nc(-c2c(-c3ccccc3)nn3ccc(OCC(=O)NC4CC4)cc23)ccc1=O [Example 61, N-Cyclopropyl-2-{[3-(3-oxo-2-isopropyl-2,3-dihydropyridazin-6-yl)-2-phenylpyrazolo[1,5-a]pyridin-5-yl]oxy}acetamide] | 199 to 200
CC(C)n1nc(-c2c(-c3ccccc3)nn3ccc(OCC(=O)NC4CCC(O)CC4)cc23)ccc1=O (stereo not shown) [Example 64, N-(4-Hydroxycyclohexyl)-2-{[3-(3-oxo-2-isopropyl-2,3-dihydropyridazin-6-yl)-2-phenylpyrazolo[1,5-a]pyridin-5-yl]oxy}acetamide] | 146 to 148
CC(C)n1nc(-c2c(-c3ccccc3)nn3ccc(OCC(=O)N4CCN(C(=O)N(C)C)CC4)cc23)ccc1=O [Example 55, N,N-dimethyl-4-[{3-(3-oxo-2-isopropyl-2,3-dihydropyridazin-6-yl)-2-phenylpyrazolo[1,5-a]pyridin-5-yl}oxy]acetyl-1-piperazine carboxamide] | 151 to 152
CC(=O)Nc1cccc(Oc2ccn3nc(-c4ccccc4)c(-c4ccc(=O)n(C(C)C)n4)c3c2)c1 [Example 36, N-(3-{[3-(3-oxo-2-isopropyl-2,3-dihydropyridazin-6-yl)-2-phenylpyrazolo[1,5-a]pyridin-5-yl]oxy}phenyl)acetamide] | 177.5 to 178.5
CC(C)n1nc(-c2c(-c3ccccc3)nn3ccc(OCCc4ccccc4)cc23)ccc1=O [Example 9, 5-Phenethyloxy-3-(3-oxo-2-isopropyl-2,3-dihydropyridazin-6-yl)-2-phenylpyrazolo[1,5-a]pyridine] | 154.5 to 155.5
COc1ccc(S(=O)(=O)Oc2ccn3nc(-c4ccccc4)c(-c4ccc(=O)n(C(C)C)n4)c3c2)cc1 [Example 7, 5-(4-methoxyphenylsulfonyl)oxy-3-(3-oxo-2-isopropyl-2,3-dihydropyridazin-6-yl)-2-phenylpyrazolo[1,5-a]pyridine] | 155 to 157
